Entries after “also recorded” stand apart in the source; their conditions may differ.
Key:
[1] = tested on: rats subjected to hemorrhagic injury (HI); assay: Survival after hemorrhagic injury without resuscitation; type: in vivo, rat; details: p<0.05 versus HI+Veh; for survival time: FIG. 4
Excerpt: Male Sprague Dawley rats (250-350 g) were obtained from Charles River Laboratory (Wilmington, Mass., USA). […] All animals were housed in Augusta University animal facility during the experiments.
The animals were fasted overnight (water allowed ad libitum) prior to the sham or hemorrhagic injury (HI) procedure. […] Femoral vein was cannulated to administer fluids. Surgical sites were bathed with bupivacaine. Sham animals were not subjected to bleeding or resuscitation. Upon awakening, the animals in HI groups were bled rapidly within the first 10 min to a MAP of 40±5 mmHg. The bleeding was continued for 45 min, maintaining the low MAP, until 60% of circulatory blood volume was withdrawn. The animals were maintained in the state of shock by maintaining MAP at 40±5 for another 45 min. During this time not more than 40% of the shed blood volume in the form of Ringer lactate was given to maintain the blood pressure. Resuscitation was performed with Ringer lactate for one hour on animals in the respective groups. Vehicle (dimethyl sulfoxide [DMSO]; 120 μL/mouse) or drug was administered at 10 min from the onset of resuscitation or immediately after shock period when there was no resuscitation.
Rats were subjected to HI and Veh, RSV or SRT1720 administered (n=5-6). (RSV: 10 mg/Kg body weight; SRT1720: 2 mg/Kg body weight.

[2] = tested on: rats subjected to hemorrhagic injury (HI); assay: 10-day survival study after hemorrhagic injury with resuscitation; type: in vivo, rat
Excerpt: Male Sprague Dawley rats (250-350 g) were obtained from Charles River Laboratory (Wilmington, Mass., USA). The experiments performed in this study including surgical procedures were approved by the Institutional Animal Care and Use Committee (IACUC) at Augusta University. All animals were housed in Augusta University animal facility during the experiments.
The animals were fasted overnight (water allowed ad libitum) prior to the sham or hemorrhagic injury (HI) procedure. Hemorrhagic procedure was as described before with some modification (Jian, B. et al., Mol. Med., 18:209-14 (2012). The animals were anesthetized with 2.5% isoflurane (Henry Schein, Dublin, Ohio, USA) and were placed on Plexiglas plate in a supine position. Isoflurane was administered in oxygen using an anesthetic vaporizer. Midline laparotomy (5 cm) was performed in both sham and HI animals to induce soft tissue trauma. Incision was closed aseptically in two layers with sutures. Two femoral arteries and one femoral vein were cannulated (PE-50 tubing), one artery was hooked up to a Blood Pressure Analyzer (Digi-Med; Micro-Med Inc., Louisville, Ky., USA) to monitor mean arterial pressure (MAP) and bleeding was performed through the other artery. Femoral vein was cannulated to administer fluids. Surgical sites were bathed with bupivacaine. Sham animals were not subjected to bleeding or resuscitation. […]

[3] = tested on: rats subjected to hemorrhagic injury (HI); assay: Cardiac function (dP/dt) after hemorrhagic injury in rat model; type: in vivo; details: RSV treatment vs HI+Veh, n=4-6, p<0.05 vs sham, FIG. 1
Excerpt: Male Sprague Dawley rats (250-350 g) were obtained from Charles River Laboratory (Wilmington, Mass., USA). The experiments performed in this study including surgical procedures were approved by the Institutional Animal Care and Use Committee (IACUC) at Augusta University. All animals were housed in Augusta University animal facility during the experiments. The animals were fasted overnight (water allowed ad libitum) prior to the sham or hemorrhagic injury (HI) procedure. Hemorrhagic procedure was as described before with some modification (Jian, B. et al., Mol. Med., 18:209-14 (2012). The animals were anesthetized with 2.5% isoflurane (Henry Schein, Dublin, Ohio, USA) and were placed on Plexiglas plate in a supine position. Isoflurane was administered in oxygen using an anesthetic vaporizer. Midline laparotomy (5 cm) was performed in both sham and HI animals to induce soft tissue trauma. Incision was closed aseptically in two layers with sutures. Two femoral arteries and one femoral vein were cannulated (PE-50 tubing), one artery was hooked up to a Blood Pressure Analyzer (Digi-Med; Micro-Med Inc., Louisville, Ky., USA) to monitor mean arterial pressure (MAP) and bleeding was performed through the other artery. Femoral vein was cannulated to administer fluids. Surgical sites were bathed with bupivacaine. Sham animals were not subjected to bleeding or resuscitation. […]

`O=C(Nc1ccccc1-c1cn2c(CN3CCNCC3)csc2n1)c1cnc2ccccc2n1` [SRT1720] was tested. Which survival time ([1]; SRT1720 2 mg/Kg body weight, without resuscitation) did it give?
The survival time was “Prolong Life”.

`O=C(O)c1cccnc1` [niacin, nicotinic acid] was tested. Which survival ([1]; niacin 1, 5, 10 mg/kg, without resuscitation, all curves, FIG. 6) did it give?
The survival was “prolonged survival”.

For `Oc1ccc(/C=C/c2cc(O)cc(O)c2)cc1` [resveratrol, 3,5,4-tribydroxystilbene], which mean weight gain ([2]; 10-day survival study, RSV 10 mg/kg, data not shown) is on record?
The mean weight gain was “significantly improved”.

And the mortality ([2]; 10-day survival, RSV 10 mg/kg body weight along with resuscitation fluid, p<0.05, FIG. 3)?
Its mortality is “reduce mortality significantly; also recorded: significantly reduced”.

And the “+dp/dt and −dp/dt” value [3]?
Its value is “restored”.

What about the survival time ([1]; RSV 10 mg/Kg body weight, absence of resuscitation) of the same compound?
The survival time was “survived for a significantly longer period of time”.

From patent US20180169085A1, “Combination Therapy for Hemorrhagic Injury” (Augusta University Reserch Institute, Inc., priority 2016, published 2018)
